Data from patent publication US20110160260A1, “Method of Treating a Neurodegenerative Disorder” (Chung Shan Medical University, priority 2009, published 2011).

Experiments:
Format in all cases: in vivo, Wistar rats
[1] = test system: DAergic neurons in striatum and SNc of MPTP-lesioned rats; test: Tyrosine hydroxylase (TH) immunostaining of striatum and SNc, image analysis
Protocol: (§1) Thirty-nine male Wistar rats (306.2±0.9 g; BioLASCO Taiwan Co., Ltd.) were used as experimental animals in the present invention. All experimental procedures were performed according to the NIH Guide for the Care and Use of Laboratory Animals and were approved by the Animal Care Committee of the Chung Shan Medical University (IACUC approval No.: 434). All animals underwent stereotaxic surgery and MPTP were injected into the substantia nigra pars compacta (SNc) in the animals to establish Parkinson's disease animal model. One day after the surgery, the rats received daily dose of intraperitoneal (i.p.) injections of D-cycloserine (DCS) (0, 5, or 10 mg/kg/day) or saline at 18:00 for 13 days. The animals were divided respectively into groups of experimental group 0 (E0), receiving MPTP+saline, experimental group 1 (E1), receiving MPTP+DCS 5 mg/kg/day, experimental group 2 (E2), receiving MPTP+DCS 10 mg/kg/day and Sham-operated group/control group (CR), receiving saline (1 ml/kg/day, i.p.) (also called control group or Sham+saline group). The descriptions of “control group, experimental group 0, experimental group 1 and experimental group 2” were used below.
(§2) For the brain surgery, all animals were intraperitoneal injected with Zoletil (2 mg/kg; Virbac, Carros, Franc) and received stereotaxic surgery after anesthetization. MPTP-HCl (1 μmol in 2 μl of saline; Sigma, Mo., USA) (Da Cunha et al., Behav Brain Res, 2001, 124:9-18; Gevaerd et al., Brain Res Bull, 2001, 55: 101-6) or saline (2 μl) were microinjected into the substantia nigra pars compacta (SNc).
One day after the test of episodic-like memory, rats were sacrificed under deep anesthesia by CO2. For histological assessment, 5-6 randomly selected rats per group were perfused cardiacly with 4% paraformaldehyde in phosphate-buffered saline (PBS), and the brains were removed rapidly and post-fixed in 20% sucrose solution with 4% paraformaldehyde at 4° C. […]
A microscope (ZEISS AXioskop2, Germany) disposed with a CCD (Optronics, USA) and the Image Pro Plus Software 6.0 (Media Cybernetics, CA, USA) was used for observation. […] The gray level of a given area of interest was measured, and the background staining measured in non-immunoreactive corpus callosum was subtracted. […] The somas of TH immunoreactive neurons located in this area were counted. The density of activated microglia was measured, according to the methods described in the literature (Sugama S, et al., Brain Res, 2003, 964: 288-94). […] Then, the numbers of activated microglial cells in the SNc, striatum, and hippocampus were counted in the areas of interest (measuring 18,769, 36,477, and 18,769 μm^2, respectively). […]

[2] = test system: pyramidal neurons in hippocampal CA1 area of MPTP-lesioned rats; test: Nissl staining of hippocampal CA1 pyramidal cell layer, neuronal density; settings: DCS 10 mg/kg/day
Protocol: Thirty-nine male Wistar rats (306.2±0.9 g; BioLASCO Taiwan Co., Ltd.) were used as experimental animals in the present invention. All experimental procedures were performed according to the NIH Guide for the Care and Use of Laboratory Animals and were approved by the Animal Care Committee of the Chung Shan Medical University (IACUC approval No.: 434). All animals underwent stereotaxic surgery and MPTP were injected into the substantia nigra pars compacta (SNc) in the animals to establish Parkinson's disease animal model. One day after the surgery, the rats received daily dose of intraperitoneal (i.p.) injections of D-cycloserine (DCS) (0, 5, or 10 mg/kg/day) or saline at 18:00 for 13 days. […]
A microscope (ZEISS AXioskop2, Germany) disposed with a CCD (Optronics, USA) and the Image Pro Plus Software 6.0 (Media Cybernetics, CA, USA) was used for observation. […] The gray level of a given area of interest was measured, and the background staining measured in non-immunoreactive corpus callosum was subtracted. […] The somas of TH immunoreactive neurons located in this area were counted. The density of activated microglia was measured, according to the methods described in the literature (Sugama S, et al., Brain Res, 2003, 964: 288-94). […]

[3] = test system: activated microglia in SNc, striatum and hippocampus of MPTP-lesioned rats; test: OX-6 (MHC class II) immunostaining, density of activated microglia
Protocol: as §1, §2
One day after the test of episodic-like memory, rats were sacrificed under deep anesthesia by CO2. For histological assessment, 5-6 randomly selected rats per group were perfused cardiacly with 4% paraformaldehyde in phosphate-buffered saline (PBS), and the brains were removed rapidly and post-fixed in 20% sucrose solution with 4% paraformaldehyde at 4° C. The frozen coronal brain sections were cut into 30 μm and further immunostained with mouse monoclonal antibodies against rat tyrosine hydroxylase (TH) (1:2000; Zymade, USA) or rat MHC class II (OX-6; 1:200; BD Biosciences Pharmingen, CA, USA) at 4° C. overnight, identical to the method used in our previous report (Wang, Wu, Liou, et. al, Behav Neurosci, 2009). In sections containing hippocampus, neurons in the hippocampus was identified by Nissl staining method.
A microscope (ZEISS AXioskop2, Germany) disposed with a CCD (Optronics, USA) and the Image Pro Plus Software 6.0 (Media Cybernetics, CA, USA) was used for observation. The three square areas (measuring 36,477, 18,769, and 2,354 μm^2) were applied respectively to determine the relative optical density of TH immunoreactivity in the striatum and the neuronal density in the SNc and hippocampal CA1 area. The images of TH staining were converted to the gray scale for measuring the density of DAergic projections. The gray level of a given area of interest was measured, and the background staining measured in non-immunoreactive corpus callosum was subtracted. […] The somas of TH immunoreactive neurons located in this area were counted. The density of activated microglia was measured, according to the methods described in the literature (Sugama S, et al., Brain Res, 2003, 964: 288-94). […] Then, the numbers of activated microglial cells in the SNc, striatum, and hippocampus were counted in the areas of interest (measuring 18,769, 36,477, and 18,769 μm^2, respectively). […]

[4] = test system: MPTP-lesioned rats (Parkinson's disease animal model); test: Episodic-like memory test in MPTP-lesioned rats
Protocol: as §1, §2
The episodic-like memory test was performed in an open field (60×60×40 cm, without roof allowing rats to aware external distal cues), 13 days after the MPTP lesion. The floor of the open field was divided into 9 areas of equal size. A video camera was mounted 160 cm above the center of the open field to record and analysis the behavior of rats. Two different sets of objects made of metal or plastic were used in the experiment. The objects weighed about 950 g and therefore, they were unmovable by the rats. The two objects differed in the diameter of base, height, color, shape, and surface texture (the metal object: column in shape, 6.5 cm in diameter, 12 cm high, silver-colored, smooth surface; the plastic object: cuboid in shape, a 7.5×5 cm cross section, 15 cm high, pellucid-colored, rough surface). One day before the test, rats were placed individually into the open field for twice and allowed to explore it (once for 5 min), with a 4 h interval, for adapting to the testing environment.
The procedure of episodic-like memory test was consistent with previous reported research (Li and Chao., Neurobiol Learn Mem 2008; 89:192-8). The method comprised two sample trials and one testing trial. In the first sample trial, the rats were placed in the open field with four identical objects (FIG. 1A, upper left), and allowed to explore them for 5 min. After an interval of 60 min, the rats were put into the same open field again and received the second sample trial for 5 min, wherein the objects were replaced with another objects and the spatial configuration was changed (FIG. 1A, lower left). After an additional interval of 60 min, the rats received a testing trial, wherein two identical objects from sample trial 1 (the “old” objects; “O”) and two identical objects from sample trial 2 (the “recent” objects; “R”) were presented. In the testing trial, animals encountered a mixed set consisting of two “O” and two “R” objects. One object from each of the two sets of objects was placed in the “same” location as in the sample trials (Os and Rs). The other two objects were “displaced” to new locations (Od and Rd) (FIG. 1A, lower right). Time spent on exploring the objects was recorded.

N[C@@H]1CONC1=O [DCS, D-4-amino-3-isoxazolidone]
MPTP-induced reduction in relative optical density of TH immunoreactivity in the striatum ([1]; DCS 5 mg/kg/day): blocked | MPTP-induced reduction in the density of DAergic neurons in the SNc ([1]; DCS 5 mg/kg/day): blocked | MPTP-induced reduction in relative optical density of TH immunoreactivity in the striatum ([1]; DCS 10 mg/kg/day): blocked | MPTP-induced reduction in the density of DAergic neurons in the SNc ([1]; DCS 10 mg/kg/day): blocked | MPTP-induced decrease of neuronal density in the pyramidal cell layer of hippocampal CA1 area [2]: blocked | MPTP-induced microglial activation in the SNc ([3]; DCS 5 mg/kg/day): suppressed | MPTP-induced microglial activation in the hippocampus ([3]; DCS 5 mg/kg/day): suppressed | MPTP-induced microglial activation in the SNc ([3]; DCS 10 mg/kg/day): suppressed | MPTP-induced microglial activation in the hippocampus ([3]; DCS 10 mg/kg/day): suppressed | microglial activation in the striatum ([3]; DCS 5 and 10 mg/kg/day groups vs other groups): no significant difference between the groups | function of episodic-like memory after MPTP lesion ([4]; DCS 10 mg/kg/day): recovered | time exploring old object, same location (Os) vs different location (Od), paired t-test ([4]; MPTP+DCS 5 mg/kg/day (E1)): had the trend of significance | time exploring recent object, displaced (Rd) vs same place (Rs), paired t-test ([4]; MPTP+DCS 5 mg/kg/day (E1)): no differences between exploring Rs and exploring Rd | total exploration time in the test trial ([4]; MPTP+DCS 5 mg/kg/day i.p. for 13 days (E1)): 54.4 ± 5.9 s | time exploring recent object, displaced (Rd) vs same place (Rs), paired t-test ([4]; MPTP+DCS 10 mg/kg/day (E2), P<0.001): spent a longer time exploring the displaced object (Rd) | time exploring old object, same location (Os) vs different location (Od), paired t-test ([4]; MPTP+DCS 10 mg/kg/day (E2), P<0.05): spent a longer time exploring the old object placed in the same location (Os) | total exploration time in the test trial ([4]; MPTP+DCS 10 mg/kg/day i.p. for 13 days (E2)): 25.4 ± 4.3 s
